From PubChem BioAssay (NCI)
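These data come from cells grown in 96-well plates and exposed to compound for 48 hours at five concentrations. At the GI50, growth is halved. Definition used: TGI = concentration required for complete inhibition of growth.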

Assays:
Assay in all cases: NCI-60 cell line screen, 48 h
[1] = system: SW-620 colon
[2] = system: HS 578T breast
[3] = system: K-562 leukemia
[4] = system: A498 renal
[5] = system: HT29 colon
[6] = system: A549 NSCLC
[7] = system: MDA-MB-435
[8] = system: LOX IMVI melanoma
[9] = system: SK-MEL-2 melanoma
[10] = system: 786-0 renal
[11] = system: NCI-H23 lung
[12] = system: HCT-15 colon
[13] = system: NCI-H226 lung
[14] = system: EKVX NSCLC
[15] = system: PC-3 prostate
[16] = system: DU-145 prostate
[17] = system: SN12C renal
[18] = system: NCI-H522 lung
[19] = system: SF-295 CNS
[20] = system: CCRF-CEM leukemia
[21] = system: NCI/ADR-RES ovarian
[22] = system: MOLT-4 leukemia
[23] = system: HL-60(TB) leukemia
[24] = system: UO-31 renal
[25] = system: OVCAR-5 ovarian
[26] = system: TK-10 renal
[27] = system: MALME-3M melanoma
[28] = system: HCT-116 colon
[29] = system: HOP-62 NSCLC
[30] = system: UACC-62 melanoma
[31] = system: SK-MEL-28 melanoma
[32] = system: CAKI-1 renal
[33] = system: M14 melanoma
[34] = system: KM12 colon
[35] = system: ACHN renal
[36] = system: NCI-H460 lung
[37] = system: BT-549 breast
[38] = system: MCF7 breast
[39] = system: SF-268 CNS
[40] = system: SF-539 CNS
[41] = system: HCC-2998 colon
[42] = system: SNB-75 CNS
[43] = system: HOP-92 NSCLC
[44] = system: SK-OV-3 ovarian
[45] = system: RPMI-8226 leukemia
[46] = system: MDA-MB-231 breast
[47] = system: RXF 393 renal
[48] = system: SNB-19 CNS
[49] = system: IGROV1 ovarian
[50] = system: COLO 205 colon
[51] = system: OVCAR-3 ovarian
[52] = system: OVCAR-8 ovarian
[53] = system: OVCAR-4 ovarian
[54] = system: SR leukemia
[55] = system: SK-MEL-5 melanoma
[56] = system: UACC-257 melanoma
[57] = system: U251 CNS
[58] = system: T-47D breast

For `COC(=O)[C@@H](C[C@H](Cc1ccccc1)NC(=O)c1csc([C@@H](C[C@H](C(C)C)N(C)C(=O)[C@@H](NC(=O)[C@H]2CCCCN2C)C(C)C)OC(C)=O)n1)NC(=O)OCc1ccccc1`, the GI50 [1] was less than 0.833 nM, the TGI [1] was greater than 8330 nM and the GI50 [2] was less than 0.833 nM. It also gave a TGI [2] greater than 3550 nM, a GI50 [3] of less than 0.833 nM and a TGI [3] greater than 3180 nM. The GI50 [4] was 1.1 nM, the TGI [4] was 10.4 nM and the GI50 [5] was less than 0.833 nM. For the same molecule, the TGI [5] was greater than 8330 nM, the GI50 [6] was 1.86 nM and the TGI [6] was greater than 8330 nM. The GI50 [7] was less than 0.833 nM, the TGI [7] was less than 0.833 nM and the GI50 [8] was less than 0.833 nM. For the same molecule, the TGI [8] was greater than 8330 nM, the GI50 [9] was less than 0.833 nM and the TGI [9] was 3450 nM. It also gave a GI50 [10] of 1.65 nM, a TGI [10] greater than 8330 nM and a GI50 [11] of 1.19 nM. It also gave a TGI [11] greater than 8330 nM, a GI50 [12] of 4.54 nM and a TGI [12] greater than 8330 nM. It also gave a GI50 [13] of 1.68 nM, a TGI [13] of 136 nM and a GI50 [14] of 17.5 nM. For the same molecule, the TGI [14] was greater than 8330 nM, the GI50 [15] was less than 0.833 nM and the TGI [15] was greater than 8330 nM. The GI50 [16] was less than 0.833 nM, the GI50 [17] was 1.46 nM and the TGI [17] was greater than 8330 nM. The GI50 [18] was less than 0.833 nM, the TGI [18] was 40 nM and the GI50 [19] was 1.33 nM. For the same molecule, the TGI [19] was greater than 8330 nM, the GI50 [20] was less than 0.833 nM and the TGI [20] was greater than 7920 nM. For the same molecule, the GI50 [21] was 43.9 nM, the TGI [21] was greater than 1690 nM and the GI50 [22] was less than 0.833 nM. For the same molecule, the TGI [22] was greater than 8330 nM, the GI50 [23] was less than 0.833 nM and the TGI [23] was 1.62 nM. The GI50 [24] was 11.3 nM, the TGI [24] was greater than 8330 nM and the GI50 [25] was 5.38 nM. The TGI [25] was greater than 8330 nM, the GI50 [26] was 107 nM and the TGI [26] was greater than 8330 nM. For the same molecule, the GI50 [27] was less than 0.833 nM, the TGI [27] was 2680 nM and the GI50 [28] was less than 0.833 nM. The GI50 [29] was 1.12 nM, the TGI [29] was greater than 8330 nM and the GI50 [30] was less than 0.833 nM. It also gave a TGI [30] greater than 8330 nM, a GI50 [31] of 906 nM and a TGI [31] of 2390 nM. For the same molecule, the GI50 [32] was 1.66 nM, the TGI [32] was greater than 8330 nM and the GI50 [33] was less than 0.833 nM. The TGI [33] was 412 nM, the GI50 [34] was less than 0.833 nM and the TGI [34] was greater than 8330 nM. The GI50 [35] was 2.93 nM, the TGI [35] was greater than 8330 nM and the GI50 [36] was less than 0.833 nM. It also gave a TGI [36] greater than 8330 nM, a GI50 [37] of 1.49 nM and a TGI [37] of 83.9 nM. For the same molecule, the GI50 [38] was less than 0.833 nM, the TGI [38] was greater than 8330 nM and the GI50 [39] was 1.37 nM. It also gave a TGI [39] greater than 8330 nM, a GI50 [40] of less than 0.833 nM and a TGI [40] of 3.85 nM. It also gave a GI50 [41] of less than 0.833 nM, a TGI [41] greater than 2890 nM and a GI50 [42] of less than 0.833 nM. It also gave a TGI [42] greater than 8330 nM, a GI50 [43] of 2.36 nM and a TGI [43] greater than 8330 nM. It also gave a GI50 [44] of 2.65 nM, a TGI [44] greater than 8330 nM and a GI50 [45] of less than 0.833 nM. It also gave a TGI [45] of 2490 nM, a GI50 [46] of 1.31 nM and a TGI [46] greater than 6730 nM. The GI50 [47] was 0.948 nM, the TGI [47] was greater than 8330 nM and the GI50 [48] was less than 0.833 nM. It also gave a TGI [48] greater than 8330 nM, a GI50 [49] of less than 0.833 nM and a TGI [49] greater than 7680 nM. It also gave a GI50 [50] of less than 0.833 nM, a GI50 [51] of less than 0.833 nM and a GI50 [52] of less than 0.833 nM. It also gave a TGI [52] greater than 8330 nM, a GI50 [53] of 7.17 nM and a TGI [53] greater than 8330 nM. It also gave a GI50 [54] of less than 0.833 nM, a TGI [54] greater than 3400 nM and a GI50 [55] of less than 0.833 nM. For the same molecule, the TGI [55] was 38.6 nM, the GI50 [56] was 30.9 nM and the TGI [56] was 2590 nM. For the same molecule, the GI50 [57] was less than 0.833 nM and the TGI [57] was greater than 2650 nM.
Molecule `CCCCOC(=O)NC(Nc1ccc(S(N)(=O)=O)cc1)(C(F)(F)F)C(F)(F)F` has a TGI [2] greater than 100000 nM, a TGI [3] greater than 100000 nM and a TGI [4] greater than 100000 nM. It also gave a TGI [5] greater than 100000 nM, a TGI [7] greater than 100000 nM and a TGI [8] greater than 100000 nM. The TGI [9] was greater than 100000 nM, the TGI [11] was greater than 100000 nM and the TGI [12] was greater than 100000 nM. The TGI [13] was greater than 100000 nM, the TGI [14] was greater than 100000 nM and the TGI [16] was greater than 100000 nM. For the same molecule, the TGI [17] was greater than 100000 nM, the TGI [18] was greater than 100000 nM and the TGI [20] was greater than 100000 nM. The TGI [22] was greater than 100000 nM, the TGI [23] was greater than 100000 nM and the TGI [24] was greater than 100000 nM. It also gave a TGI [25] greater than 100000 nM, a TGI [26] greater than 100000 nM and a TGI [27] greater than 100000 nM. The TGI [28] was greater than 100000 nM, the TGI [29] was greater than 100000 nM and the TGI [58] was greater than 100000 nM. The TGI [30] was greater than 100000 nM, the TGI [31] was greater than 100000 nM and the TGI [33] was greater than 100000 nM. It also gave a TGI [34] greater than 100000 nM, a TGI [35] greater than 100000 nM and a TGI [36] greater than 100000 nM. It also gave a TGI [37] greater than 100000 nM, a TGI [38] greater than 100000 nM and a TGI [39] greater than 100000 nM. The TGI [40] was greater than 100000 nM, the TGI [41] was greater than 100000 nM and the TGI [42] was greater than 100000 nM. It also gave a TGI [44] greater than 100000 nM, a TGI [45] greater than 100000 nM and a TGI [46] greater than 100000 nM. It also gave a TGI [47] greater than 100000 nM, a TGI [48] greater than 100000 nM and a TGI [51] greater than 100000 nM. For the same molecule, the TGI [54] was greater than 100000 nM, the TGI [56] was greater than 100000 nM and the TGI [57] was greater than 100000 nM.
